Test results reported in patent publication US11078198B2 (BRISTOL-MYERS SQUIBB COMPANY, priority 2017, dated 2021).

Target: T1, human FXR (Homo sapiens, UniProt Q96RI1)
T1 construct: expressed in transfected cells; host or cells: HEK293 cells stably carrying a 5xGal4-response-element firefly luciferase reporter, transiently transfected with pcDNA3.1-Gal4-FXR
T1 sequence (Q96RI1 262-486 limits assumed): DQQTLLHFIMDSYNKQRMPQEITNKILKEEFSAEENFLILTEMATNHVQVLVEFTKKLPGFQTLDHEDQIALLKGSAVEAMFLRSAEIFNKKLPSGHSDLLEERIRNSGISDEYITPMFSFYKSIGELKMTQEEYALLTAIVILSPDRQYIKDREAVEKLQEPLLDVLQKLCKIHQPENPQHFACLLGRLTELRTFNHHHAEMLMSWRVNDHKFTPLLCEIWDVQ
Test: transient human FXR/Gal4-luciferase reporter assay
Format: cell-based
Settings: Gal4-hFXR transfected HEK293 reporter cells; relative to 8 μM GW-4064
Method: A Gal4-hFXR fusion construct reporter system was used as the primary assay to characterize compound activity. A construct including 5 copies of the Gal4 promoter response element upstream of a firefly luciferase reporter cDNA was stably expressed in HEK293 cells. This reporter cell line was maintained in Dulbecco's Modified Eagle's medium (DMEM; Gibco) supplemented with 1% penicillin-streptomycin (P/S) solution, 500 μg/mL Zeocin and 10% charcoal/dextran-treated fetal bovine serum (cs-FBS) at 37° C. in a humidified 5% CO2 atmosphere. Another plasmid was constructed in which the human cytomegalovirus promoter in the pcDNA3.1 vector directs the expression of the cDNA encoding a fusion protein comprised of the DNA binding domain from the Gal4 transcription factor fused to the ligand binding domain from human FXR.
The day prior to transfection, the reporter cells in culture are detached from the plate with trypsin and plated into a T75 flask at a sufficient density to achieve approximately 90% confluence the next morning. The transfection reagents are prepared by separately diluting 25 μg of the pcDNA3.1-Gal4-FXR plasmid into 1.87 mL of Opti-MEM (Thermo-Fisher), and 40 μL of Lipofectamine 2000 (Thermo-Fisher) into 1.87 mL of Opti-MEM, and then adding the diluted DNA solution into the diluted Lipofectamine 2000 solution and incubating at room temperature for 15-20 minutes. The mixture is further diluted with 10 mL of a solution comprised of DMEM, 10% cs-FBS, and 1% P/S immediately prior to transferring to the cells. The maintenance culture media is aspirated from the cells and the final transfection mixture is added before the cells are incubated overnight at 37° C. in a humidified 5% CO2 atmosphere. This protocol can be scaled up, and the transiently transfected cells can be cryopreserved in an assay-ready format.
For compound testing, 100 nL of the compounds (serial dilutions in DMSO) are dispensed with an Echo acoustic dispenser (Labcyte) into the wells of a Corning/Costar clear bottom 384-well white plate. The transfected cells are harvested, counted, and diluted such that 10-25,000 cells in 25 μL are plated into each well of the 384-well compound assay plate. The compound-treated cells are incubated overnight at 37° C. in a humidified 5% CO2 atmosphere.

EC50 [nM] | Compound
4800 | O=C(O)c1cc(F)c2nc(N3CCC4(CC3)CC(O)(c3c(-c5c(Cl)cccc5Cl)noc3C3CC3)C4)sc2c1 [Example 33, 2-(2-(5-Cyclopropyl-3-(2,6-dichlorophenyl)isoxazol-4-yl)-2-hydroxy-7-azaspiro[3.5]nonan-7-yl)-4-fluorobenzo[d]thiazole-6-carboxylic acid]
400 | O=C(O)c1cc(F)c2nc(N3CC4(C=C(c5c(-c6ccccc6C(F)(F)F)noc5C5CC5)C4)C3)sc2c1 [Example 34, 2-(6-(5-cyclopropyl-3-(2-(trifluoromethyl)phenyl)isoxazol-4-yl)-2-azaspiro[3.3]hept-5-en-2-yl)-4-fluorobenzo[d]thiazole-6-carboxylic acid]
4300 | O=C(O)c1ccc(N2CC3(C=C(c4c(-c5ccccc5C(F)(F)F)noc4C4CC4)C3)C2)nc1 [Example 35, 6-(6-(5-cyclopropyl-3-(2-(trifluoromethyl)phenyl)isoxazol-4-yl)-2-azaspiro[3.3]hept-5-en-2-yl)nicotinic acid]
116 | O=C(O)c1cc(F)c2nc(N3CCC4(CC3)CC(c3c(-c5ccccc5C(F)(F)F)noc3C3CC3)C4)sc2c1 [Example 36, 2-(2-(5-cyclopropyl-3-(2-(trifluoromethyl)phenyl)isoxazol-4-yl)-7-azaspiro[3.5]nonan-7-yl)-4-fluorobenzo[d]thiazole-6-carboxylic acid]
1400 | O=C(O)c1ccc(N2CCC3(CC2)CC(c2c(-c4ccccc4C(F)(F)F)noc2C2CC2)C3)nc1 [Example 37]
1000 | O=C(O)c1cc(F)c2nc(N3CCC4(CC3)COC(c3c(-c5ccccc5OC(F)(F)F)noc3C3CC3)O4)sc2c1 (stereo not drawn) [Example 42, 2-(2-(5-cyclopropyl-3-(2-(trifluoromethoxy)phenyl)isoxazol-4-yl)-1,3-dioxa-8-azaspiro[4.5]decan-8-yl)-4-fluorobenzo[d]thiazole-6-carboxylic acid]
5300 | O=C(O)c1ccc(N2CCC3(CC2)COC(c2c(-c4ccccc4OC(F)(F)F)noc2C2CC2)O3)nc1 (stereo not drawn) [Example 43, 6-(2-(5-Cyclopropyl-3-(2-(trifluoromethoxy)phenyl)isoxazol-4-yl)-1,3-dioxa-8-azaspiro[4.5]decan-8-yl)nicotinic acid]
5000 | O=C(O)c1cccc(N2CCC3(CC2)COC(c2c(-c4ccccc4OC(F)(F)F)noc2C2CC2)O3)n1 (stereo not drawn) [Example 44, 6-(2-(5-cyclopropyl-3-(2-(trifluoromethoxy)phenyl)isoxazol-4-yl)-1,3-dioxa-8-azaspiro[4.5]decan-8-yl)picolinic acid]
11 | Cc1cc(C(=O)O)cc2sc(N3CCC4(C=C(c5c(-c6c(Cl)cccc6Cl)noc5C5CC5)C4)CC3)nc12 [Example 45, 2-(2-(5-Cyclopropyl-3-(2,6-dichlorophenyl)isoxazol-4-yl)-7-azaspiro[3.5]non-1-en-7-yl)-4-methylbenzo[d]thiazole-6-carboxylic acid]
200 | O=C(O)c1cc(F)c2nc(N3CCC4(C=C(c5c(-c6ncccc6Cl)noc5C5CC5)C4)CC3)sc2c1 [Example 46, 2-(2-(3-(3-Chloropyridin-2-yl)-5-cyclopropylisoxazol-4-yl)-7-azaspiro[3.5]non-1-en-7-yl)-4-fluorobenzo[d]thiazole-6-carboxylic acid]
115 | O=C(O)c1cc(F)c2nc(N3CCC4(C=C(c5c(-c6c(Cl)cc(F)cc6Cl)noc5C5CC5)C4)CC3)sc2c1 [Example 48, 2-(2-(5-Cyclopropyl-3-(2,6-dichloro-4-fluorophenyl)isoxazol-4-yl)-7-azaspiro[3.5]non-1-en-7-yl)-4-fluorobenzo[d]thiazole-6-carboxylic acid]
57 | CC(C)c1onc(-c2c(Cl)cccc2Cl)c1C1=CC2(CCN(c3nc4c(F)cc(C(=O)O)cc4s3)CC2)C1 [Example 49, 2-(2-(3-(2,6-Dichlorophenyl)-5-isopropylisoxazol-4-yl)-7-azaspiro[3.5]non-1-en-7-yl)-4-fluorobenzo[d]thiazole-6-carboxylic acid]
11 | O=C(O)c1cc(OC(F)(F)F)c2nc(N3CCC4(C=C(c5c(-c6c(Cl)cncc6Cl)noc5C5CC5)C4)CC3)sc2c1 [Example 50, 2-(2-(5-Cyclopropyl-3-(3,5-dichloropyridin-4-yl)isoxazol-4-yl)-7-azaspiro[3.5]non-1-en-7-yl)-4-(trifluoromethoxy)benzo[d]thiazole-6-carboxylic acid]
72 | COc1cc2nc(N3CCC4(C=C(c5c(-c6c(Cl)cncc6Cl)noc5C5CC5)C4)CC3)sc2cc1C(=O)O [Example 51, 2-(2-(5-Cyclopropyl-3-(3,5-dichloropyridin-4-yl)isoxazol-4-yl)-7-azaspiro[3.5]non-1-en-7-yl)-5-methoxybenzo[d]thiazole-6-carboxylic acid]
58 | CC(C)c1onc(-c2c(Cl)cncc2Cl)c1C1=CC2(CCN(c3nc4c(F)cc(C(=O)O)cc4s3)CC2)C1 [Example 52, 2-(2-(3-(3,5-Dichloropyridin-4-yl)-5-isopropylisoxazol-4-yl)-7-azaspiro[3.5]non-1-en-7-yl)-4-fluorobenzo[d]thiazole-6-carboxylic acid]
46 | O=C(O)c1cc2ccc(N3CCC4(C=C(c5c(-c6c(Cl)cccc6Cl)noc5C5CC5)C4)CC3)cc2nn1 [Example 53, 7-(2-(5-Cyclopropyl-3-(2,6-dichlorophenyl)isoxazol-4-yl)-7-azaspiro[3.5]non-1-en-7-yl)cinnoline-3-carboxylic acid]
177 | O=C(O)c1cc2ccc(N3CCC4(C=C(c5c(-c6ccccc6C(F)(F)F)noc5C5CC5)C4)CC3)cc2nn1 [Example 54, 7-(2-(5-Cyclopropyl-3-(2-(trifluoromethyl)phenyl)isoxazol-4-yl)-7-azaspiro[3.5]non-1-en-7-yl)cinnoline-3-carboxylic acid]
191 | O=C(O)c1cc2ccc(N3CCC4(C=C(c5c(-c6c(Cl)cncc6Cl)noc5C5CC5)C4)CC3)cc2nn1 [Example 55, 7-(2-(5-Cyclopropyl-3-(3,5-dichloropyridin-4-yl)isoxazol-4-yl)-7-azaspiro[3.5]non-1-en-7-yl)cinnoline-3-carboxylic acid]
194 | O=C(O)c1cc2ccc(N3CCC4(C=C(c5c(-c6c(F)cccc6Cl)noc5C5CC5)C4)CC3)cc2nn1 [Example 56, 7-(2-(3-(2-Chloro-6-fluorophenyl)-5-cyclopropylisoxazol-4-yl)-7-azaspiro[3.5]non-1-en-7-yl)cinnoline-3-carboxylic acid]
227 | Cc1cccc(Cl)c1-c1noc(C2CC2)c1C1=CC2(CCN(c3ccc4cc(C(=O)O)nnc4c3)CC2)C1 [Example 57, 7-(2-(3-(2-Chloro-6-methylphenyl)-5-cyclopropylisoxazol-4-yl)-7-azaspiro[3.5]non-1-en-7-yl)cinnoline-3-carboxylic acid]
2.3 | O=C(O)c1cc(OC(F)F)c2cc(N3CCC4(C=C(c5c(-c6ccccc6C(F)(F)F)noc5C5CC5)C4)CC3)ccc2n1 [Example 58, 6-(2-(5-Cyclopropyl-3-(2-(trifluoromethyl)phenyl)isoxazol-4-yl)-7-azaspiro[3.5]non-1-en-7-yl)-4-(difluoromethoxy)quinoline-2-carboxylic acid]
4.1 | COc1cc(C(=O)O)cc2sc(N3CCC4(C=C(c5c(-c6c(Cl)cncc6Cl)noc5C5CC5)C4)CC3)nc12 [Example 59, 2-(2-(5-Cyclopropyl-3-(3,5-dichloropyridin-4-yl)isoxazol-4-yl)-7-azaspiro[3.5]non-1-en-7-yl)-4-methoxybenzo[d]thiazole-6-carboxylic acid]

Compound | EC50 [nM]
CCOC(=O)c1cc(F)c2nc(N3[C@@H]4CC[C@H]3C[C@@]3(COC(c5c(-c6c(Cl)cccc6Cl)noc5C5CC5)O3)C4)sc2c1 (stereo partly drawn) [Example 40, Ethyl 2-((1R,3S,5S)-2′-(5-cyclopropyl-3-(2,6-dichlorophenyl)isoxazol-4-yl)-8-azaspiro[bicyclo[3.2.1]octane-3,4′-[1,3]dioxolan]-8-yl)-4-fluorobenzo[d]thiazole-6-carboxylate] | 3400
O=C(O)c1cc(F)c2nc(N3[C@@H]4CC[C@H]3CC3(COC(c5c(-c6c(Cl)cccc6Cl)noc5C5CC5)O3)C4)sc2c1 (stereo partly drawn) [Example 41, 2-((1R,5S)-2′-(5-cyclopropyl-3-(2,6-dichlorophenyl)isoxazol-4-yl)-8-azaspiro[bicyclo[3.2.1]octane-3,4′-[1,3]dioxolan]-8-yl)-4-fluorobenzo[d]thiazole-6-carboxylic acid] | 1700
